This is an account of results in patent US20260207585A1, “METHODS AND COMPOSITIONS FOR THE TREATMENT OF PARKINSON'S DISEASE, HUNTINGTON'S DISEASE, AMYOTROPHIC LATERAL SCLEROSIS, AND LEARNING DISORDERS” (Cedars-Sinai Medical Center, priority 2022, published 2026).

Where two headings read alike, the source gives them in different places.

Experiment [1] concerns the target DNMT3b/3L (Homo sapiens, UniProt Q9UBC3). Kind of experiment: Methyltransferase inhibition panel: DNMT3b/3L. In kind it is biochemical. As to the method:
(§1) The ability of ETP69 to inhibit methyltransferases was tested.

Experiment [2] addresses METTL21A (Homo sapiens, UniProt Q8WXB1). The experiment in a line: Methyltransferase inhibition panel: METTL21A. In kind it is biochemical. As to the method:
as §1

For experiment [3], the target named is T1, NSD2 (T1150A) (Homo sapiens, UniProt O96028, T1150A).
T1 sequence (O96028 1-1365 T1150A): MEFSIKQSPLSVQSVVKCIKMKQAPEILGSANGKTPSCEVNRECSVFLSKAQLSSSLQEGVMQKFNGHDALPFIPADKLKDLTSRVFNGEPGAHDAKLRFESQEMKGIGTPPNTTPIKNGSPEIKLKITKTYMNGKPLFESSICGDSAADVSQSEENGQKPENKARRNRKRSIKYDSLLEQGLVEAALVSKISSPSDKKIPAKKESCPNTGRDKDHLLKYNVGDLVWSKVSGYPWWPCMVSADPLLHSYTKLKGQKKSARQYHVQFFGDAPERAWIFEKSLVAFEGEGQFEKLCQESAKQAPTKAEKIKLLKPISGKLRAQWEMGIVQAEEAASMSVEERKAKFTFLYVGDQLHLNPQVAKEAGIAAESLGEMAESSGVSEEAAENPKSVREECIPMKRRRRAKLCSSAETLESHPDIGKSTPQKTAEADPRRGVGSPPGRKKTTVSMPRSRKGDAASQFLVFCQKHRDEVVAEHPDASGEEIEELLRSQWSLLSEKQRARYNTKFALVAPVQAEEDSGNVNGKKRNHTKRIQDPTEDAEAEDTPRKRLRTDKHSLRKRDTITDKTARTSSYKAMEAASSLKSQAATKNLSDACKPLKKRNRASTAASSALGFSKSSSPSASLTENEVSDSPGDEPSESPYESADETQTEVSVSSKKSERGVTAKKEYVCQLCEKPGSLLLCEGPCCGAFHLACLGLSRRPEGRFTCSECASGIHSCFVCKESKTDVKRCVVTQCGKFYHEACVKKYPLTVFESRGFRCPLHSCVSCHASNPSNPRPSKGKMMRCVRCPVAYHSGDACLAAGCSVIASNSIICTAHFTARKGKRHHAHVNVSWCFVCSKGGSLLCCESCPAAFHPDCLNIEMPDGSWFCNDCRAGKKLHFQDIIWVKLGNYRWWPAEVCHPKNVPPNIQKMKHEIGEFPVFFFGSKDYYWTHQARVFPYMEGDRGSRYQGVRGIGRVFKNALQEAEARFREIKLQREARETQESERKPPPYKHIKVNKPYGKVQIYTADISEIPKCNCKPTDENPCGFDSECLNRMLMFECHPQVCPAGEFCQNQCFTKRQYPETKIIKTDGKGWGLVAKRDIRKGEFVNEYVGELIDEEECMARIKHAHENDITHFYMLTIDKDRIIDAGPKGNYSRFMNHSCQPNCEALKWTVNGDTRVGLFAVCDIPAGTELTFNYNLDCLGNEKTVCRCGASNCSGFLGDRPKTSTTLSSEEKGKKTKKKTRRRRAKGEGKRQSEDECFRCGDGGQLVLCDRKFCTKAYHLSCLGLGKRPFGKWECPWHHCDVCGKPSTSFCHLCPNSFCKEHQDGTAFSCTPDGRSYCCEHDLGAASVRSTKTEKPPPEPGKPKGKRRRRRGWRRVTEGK
Kind of experiment: Methyltransferase inhibition panel: NSD2 (T1150A). It is filed as biochemical. The protocol: as §1

Experiment [4] concerns the target PRMT5/MEP50 Complex (Homo sapiens, UniProt O14744). Kind of experiment: Methyltransferase inhibition panel: PRMT5/MEP50 Complex. In kind it is biochemical. As to the method:
as §1

For experiment [5], the target named is PRMT6 (Homo sapiens, UniProt Q96LA8). The experiment in a line: Methyltransferase inhibition panel: PRMT6. Particulars: NT1721 20 μM, substrate GST-GAR 5 μM. It is filed as biochemical. As to the method:
as §1

The target of experiment [6] is SUV420H1TV2 (Homo sapiens, UniProt Q4FZB7). Kind of experiment: Methyltransferase inhibition panel: SUV420H1TV2. In kind it is biochemical. As to the method: as §1
Experiment [7] has as its system wildtype and AD model (APP/PS1-transgenic) mice. Kind of experiment: Y-Maze test. In kind it is in vivo. As to the method: The effects of single and repeated ETP69 injections in mice were tested. The experimental timeline is depicted in FIG. 5. Three parallel injection conditions were tested: a single ETP69 condition, a boosted ETP69 injection, and repeated ETP69 injections. The single injection mice received one injection of ETP69 or DMSO at Day 0. The mice that received a boosted injection received one injection of ETP69 or DMSO at day 0 and one injection at day 9. The mice that received repeated injections received 11 injections of ETP69 or DMSO at day 0 or day 9. Both wildtype and AD model (APP/PS1-transgenic) mice were tested.
Treatment with ETP69 restored CNS-related locomotor, visual, cognitive functions (FIGS. 6A-611). First, the effects of ETP69 on cognitive and visual protection was tested using the Y-Maze test.

Where [8] appears, read: read-out: Enzyme % Activity (relative to DMSO controls) Data 1.
[9] abbreviates: read-out: Enzyme % Activity (relative to DMSO controls) Data 2.

Chain of METTL21A (Q8WXB1 whole entry): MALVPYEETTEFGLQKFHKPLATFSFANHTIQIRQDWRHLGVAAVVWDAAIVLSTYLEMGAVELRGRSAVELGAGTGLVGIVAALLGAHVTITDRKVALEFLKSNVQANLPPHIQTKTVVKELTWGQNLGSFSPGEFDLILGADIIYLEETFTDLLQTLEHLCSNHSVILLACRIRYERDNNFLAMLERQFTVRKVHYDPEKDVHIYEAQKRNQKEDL
Chain of PRMT5/MEP50 Complex (O14744 whole entry): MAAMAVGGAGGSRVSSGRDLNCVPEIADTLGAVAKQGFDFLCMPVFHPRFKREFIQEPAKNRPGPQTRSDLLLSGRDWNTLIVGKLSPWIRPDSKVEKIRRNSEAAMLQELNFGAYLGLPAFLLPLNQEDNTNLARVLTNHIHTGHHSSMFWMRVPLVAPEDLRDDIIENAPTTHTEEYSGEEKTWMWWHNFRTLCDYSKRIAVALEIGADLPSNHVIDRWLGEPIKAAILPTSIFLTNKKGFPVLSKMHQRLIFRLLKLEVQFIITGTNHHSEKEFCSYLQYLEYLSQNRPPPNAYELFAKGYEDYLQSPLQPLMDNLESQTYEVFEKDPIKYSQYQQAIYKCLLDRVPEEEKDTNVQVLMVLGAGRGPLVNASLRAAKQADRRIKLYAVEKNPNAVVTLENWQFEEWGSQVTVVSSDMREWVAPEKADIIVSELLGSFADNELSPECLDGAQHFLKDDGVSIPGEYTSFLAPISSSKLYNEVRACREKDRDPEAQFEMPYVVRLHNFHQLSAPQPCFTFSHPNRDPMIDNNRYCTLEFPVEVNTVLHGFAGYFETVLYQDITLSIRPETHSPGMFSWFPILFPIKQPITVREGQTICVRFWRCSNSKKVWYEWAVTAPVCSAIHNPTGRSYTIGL
Chain of PRMT5/MEP50 Complex (Q9BQA1 whole entry partner): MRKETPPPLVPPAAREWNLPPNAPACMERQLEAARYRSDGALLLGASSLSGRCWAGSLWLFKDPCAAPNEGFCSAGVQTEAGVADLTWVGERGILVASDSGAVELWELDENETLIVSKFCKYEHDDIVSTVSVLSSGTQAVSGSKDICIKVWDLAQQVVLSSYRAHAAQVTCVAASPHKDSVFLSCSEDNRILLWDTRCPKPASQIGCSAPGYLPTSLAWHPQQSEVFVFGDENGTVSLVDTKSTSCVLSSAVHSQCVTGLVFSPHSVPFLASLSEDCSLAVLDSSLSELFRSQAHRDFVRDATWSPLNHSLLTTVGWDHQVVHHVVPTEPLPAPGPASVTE
Chain of SUV420H1TV2 (Q4FZB7 1-393 isoform Q4FZB7-2): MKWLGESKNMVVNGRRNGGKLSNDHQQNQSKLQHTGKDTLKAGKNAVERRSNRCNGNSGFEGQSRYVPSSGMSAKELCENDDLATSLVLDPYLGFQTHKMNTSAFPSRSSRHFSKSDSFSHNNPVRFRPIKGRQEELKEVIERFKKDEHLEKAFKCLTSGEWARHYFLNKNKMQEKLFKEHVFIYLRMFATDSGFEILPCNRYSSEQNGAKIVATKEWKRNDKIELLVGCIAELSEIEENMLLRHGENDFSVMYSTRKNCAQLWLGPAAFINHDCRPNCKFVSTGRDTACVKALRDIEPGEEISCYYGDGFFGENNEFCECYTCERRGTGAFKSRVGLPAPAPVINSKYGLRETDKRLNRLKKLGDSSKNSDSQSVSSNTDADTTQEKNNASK
Chain of PRMT6 (Q96LA8 whole entry): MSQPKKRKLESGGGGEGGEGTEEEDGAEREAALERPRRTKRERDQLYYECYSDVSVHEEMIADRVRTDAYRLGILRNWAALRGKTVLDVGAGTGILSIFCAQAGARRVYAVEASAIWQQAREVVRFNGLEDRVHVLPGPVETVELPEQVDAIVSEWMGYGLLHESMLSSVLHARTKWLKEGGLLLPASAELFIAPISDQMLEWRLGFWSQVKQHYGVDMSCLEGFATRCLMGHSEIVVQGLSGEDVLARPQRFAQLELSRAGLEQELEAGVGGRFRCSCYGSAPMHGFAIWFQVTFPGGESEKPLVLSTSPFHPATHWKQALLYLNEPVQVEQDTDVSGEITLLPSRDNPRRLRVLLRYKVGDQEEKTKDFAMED

`CN1C(=O)[C@@]23C[C@](C)(C#N)[C@H](c4ccc5c(c4)OCO5)N2C(=O)[C@]1(C)SS3` (racemic) [ETP69, Rac-(3S,6S,7S,8aS)-6-(benzo[d][1,3]dioxol-5-yl)-2,3,7-trimethyl-1,4-dioxohexahydro-6H-3,8a-epidithiopyrrolo[1,2-a]pyrazine-7-carbonitrile]: the remaining activity at 20 µM in experiment [1] (setting [8]) worked out at 113%; in experiment [1] (setting [9]), 111%; in experiment [2] (setting [8]) it was 78.6%; in experiment [2] (setting [9]) it was 78.5%; in experiment [3] (setting [8]), 23.9%; in experiment [3] (setting [9]), 25.5%. Also, the remaining activity at 20 µM came to 92.2% in experiment [4] (setting [8]); 93.1% in experiment [4] (setting [9]); 128% in experiment [5] (setting [8]); 129% in experiment [5] (setting [9]); 91.5% in experiment [6] (setting [8]); 90% in experiment [6] (setting [9]). The “inhibition relative to DMSO controls” value in experiment [3] (summary of Table 1) is on record as “at least 7500”. For the same molecule, the percent alternation entry in experiment [7] (AD+ mice vs AD+ DMSO) is reported as “significant increase”. For the same molecule, the “number of total entries (locomotor activity)” value in experiment [7] (wildtype and AD+ mice) is recorded as “decreased”.
